The record followed here is PMC11513893, “Discovery of Oral Degraders of the ROS1 Fusion Protein with Potent Activity against Secondary Resistance Mutations” (Journal of Medicinal Chemistry, 2024).

The subject of data set [1] is Ba/F3 ROS1 D2033N. Put plainly: Antiproliferation assay. The conditions noted are these: Mus musculus, BaF3; Ba/F3 cells, cell growth inhibition. It counts as cell-based.
For data set [2], the system named is Ba/F3 ROS1 G2032R-F2075V. The experiment in a line: Antiproliferation assay. It counts as cell-based. The conditions noted are these: Mus musculus, BaF3; Ba/F3 cells, cell growth inhibition.
Data set [3] has as its system Ba/F3 ROS1 L2026M. Put plainly: Antiproliferation assay. The class given is cell-based. Conditions: Mus musculus, BaF3; Ba/F3 cells, cell growth inhibition.
The nature of data set [4]: Metabolic stability in human microsomes. It counts as in vitro ADME. Conditions: human, pooled human microsomes, pH 7.4, 250 nM compound, NADPH, 37 °C.
The nature of data set [5]: Pharmacokinetics study in Sprague–Dawley rats. It counts as in vivo. The conditions noted are these: rat.
For data set [6], the target named is FER (Homo sapiens, UniProt P16591). Put plainly: Kinase assay. Conditions: average of duplicate measurements. The class given is biochemical.
The target in data set [7] is FLT3 (Homo sapiens, UniProt P36888). The experiment in a line: Kinase assay. The class given is biochemical. Conditions: average of duplicate measurements.
Data set [8] has as its target BRK (PTK6) (Homo sapiens, UniProt Q13882). The experiment in a line: Kinase assay. The conditions noted are these: average of duplicate measurements. The class given is biochemical.

Several values for one entry are separate records, joined by “and”; a condition that tells them apart may be missing. Equal entries are not always repeated.

Chain of FLT3 (P36888 27-993, species assumed): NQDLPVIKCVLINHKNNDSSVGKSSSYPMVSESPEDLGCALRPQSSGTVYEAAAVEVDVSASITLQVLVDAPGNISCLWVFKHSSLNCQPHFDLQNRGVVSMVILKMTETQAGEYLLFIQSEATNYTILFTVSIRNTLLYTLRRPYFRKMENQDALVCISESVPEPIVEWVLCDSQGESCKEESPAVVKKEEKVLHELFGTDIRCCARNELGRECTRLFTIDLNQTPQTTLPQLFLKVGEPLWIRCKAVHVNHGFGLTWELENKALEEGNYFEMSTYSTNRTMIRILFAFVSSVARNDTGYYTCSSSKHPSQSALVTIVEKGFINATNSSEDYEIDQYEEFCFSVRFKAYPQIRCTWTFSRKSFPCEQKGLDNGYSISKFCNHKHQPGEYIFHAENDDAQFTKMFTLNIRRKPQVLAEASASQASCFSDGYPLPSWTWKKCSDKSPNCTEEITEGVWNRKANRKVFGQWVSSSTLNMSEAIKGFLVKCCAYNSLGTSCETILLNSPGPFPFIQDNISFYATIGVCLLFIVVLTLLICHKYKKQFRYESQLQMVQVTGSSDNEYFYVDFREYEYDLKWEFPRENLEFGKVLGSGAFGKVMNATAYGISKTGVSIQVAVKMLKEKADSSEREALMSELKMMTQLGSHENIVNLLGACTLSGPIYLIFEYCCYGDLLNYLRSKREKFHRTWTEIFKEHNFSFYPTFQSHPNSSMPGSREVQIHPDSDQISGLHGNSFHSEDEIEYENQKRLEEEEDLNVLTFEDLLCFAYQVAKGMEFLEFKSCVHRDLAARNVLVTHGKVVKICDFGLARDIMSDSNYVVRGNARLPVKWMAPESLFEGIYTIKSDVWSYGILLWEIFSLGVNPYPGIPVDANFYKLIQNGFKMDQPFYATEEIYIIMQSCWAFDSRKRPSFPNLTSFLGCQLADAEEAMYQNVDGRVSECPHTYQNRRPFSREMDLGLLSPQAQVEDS
Chain of FER (P16591 whole entry, species assumed): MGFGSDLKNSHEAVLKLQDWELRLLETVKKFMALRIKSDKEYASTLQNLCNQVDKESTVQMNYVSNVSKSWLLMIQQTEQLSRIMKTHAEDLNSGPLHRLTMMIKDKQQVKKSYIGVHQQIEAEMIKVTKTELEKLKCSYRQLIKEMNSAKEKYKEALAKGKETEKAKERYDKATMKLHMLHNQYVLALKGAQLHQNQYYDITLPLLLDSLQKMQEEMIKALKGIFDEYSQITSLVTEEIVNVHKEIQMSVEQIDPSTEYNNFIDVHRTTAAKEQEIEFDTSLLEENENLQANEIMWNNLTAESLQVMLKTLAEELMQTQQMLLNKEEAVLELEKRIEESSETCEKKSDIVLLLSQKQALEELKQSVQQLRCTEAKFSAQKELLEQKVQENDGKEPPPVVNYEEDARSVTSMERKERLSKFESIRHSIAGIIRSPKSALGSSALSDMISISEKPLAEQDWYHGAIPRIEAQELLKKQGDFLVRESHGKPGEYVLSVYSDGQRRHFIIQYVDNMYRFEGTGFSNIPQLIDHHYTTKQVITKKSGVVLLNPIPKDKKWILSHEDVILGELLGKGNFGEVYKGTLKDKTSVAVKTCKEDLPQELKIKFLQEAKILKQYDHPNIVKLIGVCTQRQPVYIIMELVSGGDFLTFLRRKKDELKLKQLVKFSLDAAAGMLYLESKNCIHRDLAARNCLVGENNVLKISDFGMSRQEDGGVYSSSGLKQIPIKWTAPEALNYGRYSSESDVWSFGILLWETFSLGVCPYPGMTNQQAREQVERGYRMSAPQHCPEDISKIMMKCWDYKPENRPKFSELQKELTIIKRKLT
Chain of BRK (PTK6) (Q13882 whole entry, species assumed): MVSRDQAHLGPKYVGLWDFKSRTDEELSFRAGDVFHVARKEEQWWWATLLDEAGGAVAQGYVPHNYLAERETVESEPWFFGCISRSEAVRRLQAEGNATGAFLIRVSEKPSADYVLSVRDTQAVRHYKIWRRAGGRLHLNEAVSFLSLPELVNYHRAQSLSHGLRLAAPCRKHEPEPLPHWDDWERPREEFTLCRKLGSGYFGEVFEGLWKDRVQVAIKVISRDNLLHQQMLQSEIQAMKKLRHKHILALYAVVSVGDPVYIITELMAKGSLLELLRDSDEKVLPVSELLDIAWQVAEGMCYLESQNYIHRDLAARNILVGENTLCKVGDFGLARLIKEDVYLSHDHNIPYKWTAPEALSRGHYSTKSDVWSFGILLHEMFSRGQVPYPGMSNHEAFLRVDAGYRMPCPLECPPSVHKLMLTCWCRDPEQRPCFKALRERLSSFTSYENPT

With `COc1cc(N2CCC(N3CCN(CC4CCN(c5ccc6c(c5)CN(C5CCC(=O)NC5=O)C6=O)CC4)CC3)CC2)ccc1Nc1ncc(Cl)c(Nc2ccccc2P(C)(C)=O)n1` (stereo not shown) [9o, 3-(5-(4-((4-(1-(4-((5-Chloro-4-((2-(dimethylphosphoryl)phenyl)amino)pyrimidin-2-yl)amino)-3-methoxyphenyl)piperidin-4-yl)piperazin-1-yl)methyl)piperidin-1-yl)-1-oxoisoindolin-2-yl)piperidine-2,6-dione], the half-maximal inhibitory concentration (IC50) was 9.6 nM in data set [1]; 5.6 nM in data set [2]; 2.5 nM in data set [3]; 3.1 nM in data set [6]; < 10 nM and 3.5 nM in data set [7]; 76 nM in data set [8]. In data set [4], the microsomal CLint at 1 h, 0.25 µM is 71.1 µL/min/mg. For the same molecule, in data set [4] (read-out: metabolic stability in human microsomes T1/2), the half-life at 1 h, 0.25 µM amounted to 0.813 h. Besides, the Cmax at 24 h in data set [5] (Sprague-Dawley [Crl: CD (SD)], plasma, 5 mg/kg po) worked out at 94 ng/mL. Also, in data set [5] (Sprague-Dawley [Crl: CD (SD)], plasma, 5 mg/kg po vs 0.5 mg/kg iv), the bioavailability was 7.3%. The “AUC (po)” value in data set [5] (5 mg/kg po) came out at 1267 ng·h/mL. In addition, the T1/2 in data set [5] (5 mg/kg po) came out at 7.32 h. Moreover, in data set [5] (5 mg/kg po), the Tmax turned out to be 2 h.
